Results taken from ChEMBL document CHEMBL2331372, “Design and synthesis of D₁ agonist/D₂ antagonist for treatment of schizophrenia” (Bioorg Med Chem Lett, 2013).

Key:
[1] = molecular target: T1, D(2) dopamine receptor (Homo sapiens, UniProt P14416); experiment: Antagonist activity at dopamine D2 receptor (unknown origin) transfected in CHO cell membranes assessed as inhibition of forskolin-stimulated cAMP level after 10 mins by flash plate assay in presence of dopamine; assay type: functional, cell-based
T1 sequence (P14416 whole entry): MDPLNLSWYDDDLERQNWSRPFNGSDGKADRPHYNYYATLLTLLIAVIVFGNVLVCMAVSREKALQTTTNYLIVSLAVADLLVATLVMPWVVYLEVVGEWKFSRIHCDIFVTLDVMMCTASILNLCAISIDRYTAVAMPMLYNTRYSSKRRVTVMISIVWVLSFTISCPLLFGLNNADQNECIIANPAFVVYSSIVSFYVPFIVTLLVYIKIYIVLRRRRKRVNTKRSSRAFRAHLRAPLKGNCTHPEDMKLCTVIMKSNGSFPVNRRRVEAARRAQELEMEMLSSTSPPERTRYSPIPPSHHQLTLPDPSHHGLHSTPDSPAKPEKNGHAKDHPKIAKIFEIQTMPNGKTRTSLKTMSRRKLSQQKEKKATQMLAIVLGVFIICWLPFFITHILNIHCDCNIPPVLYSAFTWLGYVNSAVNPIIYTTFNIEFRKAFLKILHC

[2] = molecular target: T2, D(1A) dopamine receptor (Homo sapiens, UniProt P21728); experiment: Agonist activity at dopamine D1 receptor (unknown origin) transfected in CHO cell membranes assessed as increase in cAMP level after 8 mins by flash plate assay in presence of dopamine; assay type: functional, cell-based
T2 sequence (P21728 whole entry): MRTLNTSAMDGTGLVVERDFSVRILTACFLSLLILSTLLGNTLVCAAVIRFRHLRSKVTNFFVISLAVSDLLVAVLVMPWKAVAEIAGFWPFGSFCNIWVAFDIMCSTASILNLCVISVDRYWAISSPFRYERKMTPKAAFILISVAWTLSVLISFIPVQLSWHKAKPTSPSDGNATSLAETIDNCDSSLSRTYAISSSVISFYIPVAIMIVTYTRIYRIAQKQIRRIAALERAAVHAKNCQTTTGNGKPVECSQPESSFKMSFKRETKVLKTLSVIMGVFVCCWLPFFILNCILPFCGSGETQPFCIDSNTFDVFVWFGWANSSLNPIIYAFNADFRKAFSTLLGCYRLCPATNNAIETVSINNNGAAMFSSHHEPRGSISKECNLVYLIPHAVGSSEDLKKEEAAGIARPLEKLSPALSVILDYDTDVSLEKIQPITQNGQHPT

[3] = molecular target: T1, D(2) dopamine receptor; experiment: Displacement of [3H]N-methylspiperone from dopamine D2 receptor (unknown origin) expressed in CHO cell membranes after 60 mins
[4] = molecular target: T2, D(1A) dopamine receptor; experiment: Displacement of [3H]SCH23390 from dopamine D1 receptor (unknown origin) expressed in CHO cell membranes after 60 mins
[5] = molecular target: Cytochrome P450 2C9 (Homo sapiens, UniProt P11712); experiment: Inhibition of CYP2C9 (unknown origin); assay type: ADME
Sequence of Cytochrome P450 2C9 (P11712 whole entry): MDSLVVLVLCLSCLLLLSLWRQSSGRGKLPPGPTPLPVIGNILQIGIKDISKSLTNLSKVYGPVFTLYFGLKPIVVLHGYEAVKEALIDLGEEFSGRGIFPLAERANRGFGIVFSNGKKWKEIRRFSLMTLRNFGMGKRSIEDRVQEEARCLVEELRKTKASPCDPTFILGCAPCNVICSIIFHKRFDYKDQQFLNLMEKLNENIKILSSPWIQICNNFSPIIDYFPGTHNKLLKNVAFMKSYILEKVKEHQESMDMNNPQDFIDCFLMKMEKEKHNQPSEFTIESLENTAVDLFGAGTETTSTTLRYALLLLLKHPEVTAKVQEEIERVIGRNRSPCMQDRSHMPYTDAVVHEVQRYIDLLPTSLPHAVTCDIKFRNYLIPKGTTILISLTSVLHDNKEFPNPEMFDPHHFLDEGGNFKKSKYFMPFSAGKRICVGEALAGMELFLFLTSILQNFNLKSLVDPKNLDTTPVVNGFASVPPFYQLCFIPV

[6] = molecular target: T3, Cytochrome P450 1A2 (Homo sapiens, UniProt P05177); experiment: Inhibition of CYP1A2 (unknown origin); assay type: ADME
T3 sequence (P05177 whole entry): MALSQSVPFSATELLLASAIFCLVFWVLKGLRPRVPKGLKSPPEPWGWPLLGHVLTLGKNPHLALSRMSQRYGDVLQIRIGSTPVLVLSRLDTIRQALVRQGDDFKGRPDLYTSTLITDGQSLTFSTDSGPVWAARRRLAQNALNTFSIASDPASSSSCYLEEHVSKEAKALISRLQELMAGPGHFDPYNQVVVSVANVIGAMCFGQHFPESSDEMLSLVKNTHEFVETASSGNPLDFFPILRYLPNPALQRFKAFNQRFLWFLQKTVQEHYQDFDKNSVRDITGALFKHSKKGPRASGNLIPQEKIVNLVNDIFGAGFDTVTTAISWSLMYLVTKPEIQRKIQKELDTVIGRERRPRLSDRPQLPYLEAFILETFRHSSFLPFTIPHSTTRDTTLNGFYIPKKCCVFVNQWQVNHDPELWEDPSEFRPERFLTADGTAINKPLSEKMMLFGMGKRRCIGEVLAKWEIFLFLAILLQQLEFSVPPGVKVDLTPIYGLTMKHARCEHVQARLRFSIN

[7] = molecular target: Cytochrome P450 3A4 (Homo sapiens, UniProt P08684); experiment: Inhibition of CYP3A4 (unknown origin); assay type: ADME
Sequence of Cytochrome P450 3A4 (P08684 whole entry): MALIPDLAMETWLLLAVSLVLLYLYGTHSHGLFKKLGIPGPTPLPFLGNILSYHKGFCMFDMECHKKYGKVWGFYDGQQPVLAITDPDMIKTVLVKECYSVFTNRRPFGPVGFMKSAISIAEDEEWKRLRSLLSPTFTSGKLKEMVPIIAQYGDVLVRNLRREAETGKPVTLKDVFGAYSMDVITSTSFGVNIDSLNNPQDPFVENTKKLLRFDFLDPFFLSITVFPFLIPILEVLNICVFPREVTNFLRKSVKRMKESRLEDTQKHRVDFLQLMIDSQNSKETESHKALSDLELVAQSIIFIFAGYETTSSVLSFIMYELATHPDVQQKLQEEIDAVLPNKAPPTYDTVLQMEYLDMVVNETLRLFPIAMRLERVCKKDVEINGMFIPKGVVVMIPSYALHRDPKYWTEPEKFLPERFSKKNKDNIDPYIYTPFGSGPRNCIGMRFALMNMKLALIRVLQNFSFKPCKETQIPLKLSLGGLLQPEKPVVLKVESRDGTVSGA

[8] = molecular target: Cytochrome P450 2D6 (Homo sapiens, UniProt P10635); experiment: Inhibition of CYP2D6 (unknown origin); assay type: ADME
Sequence of Cytochrome P450 2D6 (P10635 whole entry): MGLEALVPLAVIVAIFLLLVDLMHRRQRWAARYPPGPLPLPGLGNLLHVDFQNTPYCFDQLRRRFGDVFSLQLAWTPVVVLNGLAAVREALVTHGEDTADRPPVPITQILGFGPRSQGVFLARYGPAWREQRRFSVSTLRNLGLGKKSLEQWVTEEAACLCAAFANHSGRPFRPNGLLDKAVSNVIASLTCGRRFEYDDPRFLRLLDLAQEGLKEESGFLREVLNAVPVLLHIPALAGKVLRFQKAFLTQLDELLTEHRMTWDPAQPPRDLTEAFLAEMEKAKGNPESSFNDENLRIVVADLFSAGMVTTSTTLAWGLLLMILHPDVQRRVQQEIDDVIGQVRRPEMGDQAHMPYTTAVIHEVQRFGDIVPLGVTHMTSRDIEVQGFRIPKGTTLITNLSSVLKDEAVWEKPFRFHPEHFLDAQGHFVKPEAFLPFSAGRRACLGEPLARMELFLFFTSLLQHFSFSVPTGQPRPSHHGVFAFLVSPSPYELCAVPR

[9] = system: Mus musculus; experiment: In vivo receptor occupancy of dopamine D2 receptor in CD1 mouse striatum assessed as inhibition of [3H]N-methylspiperone binding at 10 mg/kg, sc after 15 mins by scintillation counting analysis; assay type: functional; conditions: route subcutaneous
[10] = system: Mus musculus; experiment: In vivo receptor occupancy of dopamine D1 receptor in CD1 mouse striatum assessed as inhibition of [3H]SCH23390 binding at 10 mg/kg, sc after 15 mins by scintillation counting analysis; assay type: functional; conditions: route subcutaneous
[11] = molecular target: Cytochrome P450 2C19 (Homo sapiens, UniProt P33261); experiment: Inhibition of CYP2C19 (unknown origin); assay type: ADME
Sequence of Cytochrome P450 2C19 (P33261 whole entry): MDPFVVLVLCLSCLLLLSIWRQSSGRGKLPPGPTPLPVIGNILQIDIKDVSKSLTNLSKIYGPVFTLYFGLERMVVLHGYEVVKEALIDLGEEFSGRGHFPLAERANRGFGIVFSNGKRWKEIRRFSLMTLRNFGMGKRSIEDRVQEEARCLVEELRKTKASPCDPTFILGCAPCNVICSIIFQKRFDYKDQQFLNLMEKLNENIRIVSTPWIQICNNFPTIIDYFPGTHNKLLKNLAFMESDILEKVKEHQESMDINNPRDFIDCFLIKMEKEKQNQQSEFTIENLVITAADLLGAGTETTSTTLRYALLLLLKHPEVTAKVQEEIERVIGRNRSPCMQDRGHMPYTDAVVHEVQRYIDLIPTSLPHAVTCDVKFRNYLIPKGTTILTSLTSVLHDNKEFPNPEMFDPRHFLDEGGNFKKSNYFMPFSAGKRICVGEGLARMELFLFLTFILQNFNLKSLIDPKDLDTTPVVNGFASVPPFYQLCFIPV

Cc1cc2c(cc1O)[C@H]1C[C@@](O)(c3ccc(Cl)cc3)CCN1CC2
IC50 [1]: 220 nM
EC50 ([2]; read-out: EC50): 11 nM
Ki [3]: 12.3 nM
Ki [4]: 5.5 nM

COc1cc2c(cc1O)[C@H]1C[C@@](O)(c3ccc(OC(F)(F)F)cc3)CCN1CC2
inhibition (INH) [5]: Not Active
inhibition (INH) [6]: Not Active
IC50 [1]: 6 nM
EC50 ([2]; read-out: EC50): 5 nM
Ki [3]: 4 nM
inhibition (INH) [7]: Not Active
Ki [4]: 2 nM
IC50 [8]: 840 nM
Occ [9]: 75%
Occ [10]: 95%
inhibition (INH) [11]: Not Active

Cc1cc2c(cc1O)[C@H]1C[C@](O)(c3ccc(Cl)cc3)CCN1CC2
IC50 [1]: 150 nM
EC50 ([2]; read-out: EC50): 750 nM
Ki [3]: 132 nM
Ki [4]: 45.9 nM

COc1cc2c(cc1O)[C@H]1C[C@](O)(c3ccc(Cl)cc3)CCN1CC2
IC50 [1]: 380 nM
EC50 ([2]; cho): Not Active
Ki [3]: 101 nM
Ki [4]: 244 nM

COc1ccc2c(c1)CCN1CC[C@](O)(c3ccc(Cl)cc3)C[C@H]21
IC50 [1]: 1010 nM
EC50 ([2]; cho): Not Active
Ki [3]: 195 nM
Ki [4]: 252 nM

COc1ccc2c(c1)CCN1CC[C@@](O)(c3ccc(Cl)cc3)C[C@H]21
EC50 ([2]; cho): Not Active
Ki [3]: > 10000 nM
Ki [4]: 3340 nM

COc1cc2c(cc1O)[C@H]1C[C@@](O)(c3ccc(Cl)cc3)CCN1CC2
EC50 ([2]; read-out: EC50): 8 nM
Ki [3]: 14.8 nM
Ki [4]: 4 nM
